This note sets out measurements from patent US20250297224A1, “CARDIOMYOCYTES AND COMPOSITIONS AND METHODS FOR PRODUCING THE SAME” (President and Fellows of Harvard College, priority 2021, published 2025).

Holding throughout (format): cell-based, human
The test system of assay [1] is iPSC-derived cardiomyocytes. Kind of assay: Protein expression of cardiac markers in iPSC-CMs, 3D suspension culture, FOXO/FOXM1 modulators. To be noted: for protein expression of TNNI3 / protein expression of TNNT2: 3D suspension culture. From the text:
(§1) FOXO activation with LOM612 enhances protein (FIG. 19B) but not RNA expression of Kir2.1 (FIG. 19A). FOXO activation increases the upstroke velocity (spike slope) (FIG. 19C).
(§2) Cell lines used included UCSD142i-86-1 iPSC line (WiCell), Gibco human episomal iPSC line (Thermo), and DiPS 1016SevA iPSC line (Harvard. Cardiomyocytes are obtained utilizing a differential protocol adapted from Lian et al. Nat Protoc 2013: 8 (1): 162-75 (FIG. 16A). The differentiation protocol may be modified utilizing modulators of FOXO and FOXM1 (FIG. 16B). Cardiomyocytes may be characterized as being contractility mature, metabolically mature, or electrophysiologically mature (FIG. 16C).

The subject of assay [2] is iPSC-derived cardiomyocytes. The assay is described as follows: Contractile and electrophysiological properties by multielectrode array analysis, FOXO/FOXM1 modulators. The settings on record: for contractility: iPSC-derived cardiomyocytes.
Excerpt: as §2
The contractile properties of cardiomyocytes improved with FOXO activation. FOXO activation with LOM612 or FOXM1 inhibition with RCM-1 increases protein expression of cardiac troponin T (TNNT2) and increases mean beat amplitude by multielectrode array analysis (FIG. 17). […] AS1842856 may be applied in an amount of about 0.2 to 1 μM.
(§3) FOXO activation improved electrophysiological properties of PSC-CMs. FOXO activation with LOM612 enhances protein, but not RNA expression of Kir2.1 (FIGS. 19A-19B). FOXO activation increases the upstroke velocity (spike slope) (FIG. 19C).

Assay [3] concerns PSC-CMs. The assay is described as follows: Oxygen consumption rate and respiratory reserve capacity of PSC-CMs. From the text: FOXO activation with LOM612 (FIG. 18A) or FOXM1 inhibition with RCM-1 (FIG. 18B) increases maximum oxygen consumption rate (OCR) and respiratory reserve capacity, while inhibition of FOXO with AS1842856 (FIG. 18C) inhibits maximum OCR and respiratory reserve capacity.
In some embodiments, the cardiomyocytes are metabolically mature cardiomyocytes. In some aspects, a cardiomyocyte has increased metabolic activity as compared to an immature cardiomyocyte. In some embodiments, a cardiomyocyte has increased oxygen consumption and/or extracellular acidification rate as compared to immature cardiomyocytes. In some embodiments, a cardiomyocyte has increased respiratory reserve as compared to immature cardiomyocytes. Metabolic maturity may be quantified using a Seahorse mito stress metabolic assay (Agilent). The assay may be used to measure oxygen consumption rate and extracellular acidification rate in response to one or more compounds (e.g., small molecule compounds) that affect mitochondrial function.
FOXO activation with LOM612 or FOXM1 inhibition with RCM-1 increases maximum oxygen consumption rate (OCR) and respiratory reserve capacity, while inhibition of FOXO with AS1842856 inhibits maximum OCR and respiratory reserve capacity (FIG. 18).

The subject of assay [4] is PSC-CMs. The assay is described as follows: RNA expression of cardiac markers in PSC-CMs.
Excerpt: as §1, §3

Assay [5] has as its system iPSC-CMs. Kind of assay: Flow cytometry of marker expression in iPSC-CMs differentiated and treated in 3D culture. The source says:
Nutlin-3a increases the percentage (FIG. 12A) and mean fluorescence intensity (MFI) (FIG. 12B) of TNNT2 in iPSC-CMs as well as the percentage (FIG. 12C) and MFI (FIG. 12D) of Kir2.1 in TNNT2+iPSC-CMs by flow cytometry. Nutlin-3a increases the percentage (FIG. 12E) and MFI (FIG. 12F) of p53 in TNNT2+iPSC-CMs. Nutlin-3a increases mean beat amplitude (FIG. 12G) and mean spike amplitude (FIG. 12H) of iPSC-CMs as quantified using a multielectrode array. *p<0.05. **p<0.01. ***p<0.001. ****p<0.0001 by one-way ANOVA. iPSC-CMs differentiated and treated in 3D. […]
(§4) Kir2.1 is the ion channel largely responsible for maintaining the resting membrane potential via the inward rectifier current (IK1); at lower levels, abnormal membrane depolarization can increase the risk of ventricular arrhythmias (8, 9). Nutlin-3a but not Torin1 treatment of iPSC-CMs increased expression of TNNT2 and Kir2.1 (FIG. 12A-12D). Also, Nutlin-3a but not Torin1 increased expression of p53, which may support induction of a quiescent state (FIG. 12E-12F).
On the technique in general: A flow cytometer gives signals particle by particle.

Assay [6] has as its system iPSC-CMs. The assay is described as follows: Multielectrode array (Axion Maestro Edge) of iPSC-CMs in 3D culture. The settings on record: iPSC-CMs differentiated and treated in 3D.
Excerpt: Nutlin-3a increases the percentage (FIG. 12A) and mean fluorescence intensity (MFI) (FIG. 12B) of TNNT2 in iPSC-CMs as well as the percentage (FIG. 12C) and MFI (FIG. 12D) of Kir2.1 in TNNT2+iPSC-CMs by flow cytometry. Nutlin-3a increases the percentage (FIG. 12E) and MFI (FIG. 12F) of p53 in TNNT2+iPSC-CMs. Nutlin-3a increases mean beat amplitude (FIG. 12G) and mean spike amplitude (FIG. 12H) of iPSC-CMs as quantified using a multielectrode array. *p<0.05. **p<0.01. ***p<0.001. ****p<0.0001 by one-way ANOVA. iPSC-CMs differentiated and treated in 3D.
as §4

For assay [7], the system named is iPSC-CMs. Kind of assay: Resting membrane potential of iPSC-CMs in 2D culture. To be noted: Torin1 200 nM, compared to control (DMSO). From the text:
Pluripotent stem cell-derived cardiomyocytes (PSC-CMs) offer a regenerative approach to treat patients with systolic heart failure. However, delivery of immature PSC-CMs may increase the risk of ventricular arrhythmias, which is a barrier to clinical translation (1, 2). It was recently identified that inhibition of the mechanistic target of rapamycin (mTOR) pathway improves maturation of cardiomyocytes derived from induced pluripotent stem cells (iPSCs) in two-dimensional (2D) culture (3). […] This could greatly simplify the manufacturing process compared to other protocols that take 2 months to produce mature PSC-CMs with similar resting membrane potentials (4).

Turning to `CCn1cc(C(=O)O)c(=O)c2c(N)c(F)c(NC3CCCCC3)cc21` [AS1842856], in assay [1], the “protein expression of TNNI3” value is given as “decreases” and the “protein expression of TNNT2” value is on record as “decreases”. Also, the beating of spheroids entry in assay [2] (3D suspension culture) is given as “non-beating spheroids”. Also, in assay [2], the contractility result is “poorly contractile cells”. In addition, in assay [3], the “maximum oxygen consumption rate (OCR)” value is recorded as “inhibits” and the respiratory reserve capacity entry is listed as “inhibits”. Further, the “cardiac marker RNA levels” value in assay [4] is given as “reduce”.

Take `CN(C)c1nsc2c1C(=O)c1ccccc1C2=O` [LOM612]: in assay [1], the “protein expression of TNNI3” value is on record as “increases” and the “protein expression of TNNT2” value is listed as “increases”. Further, the “protein expression of Kir2.1” value in assay [1] (PSC-CMs) is on record as “enhances”. Moreover, the “mean beat amplitude by multielectrode array analysis” value in assay [2] (3D suspension culture) is “increases”. The “upstroke velocity (spike slope)” value in assay [2] (FOXO activation, PSC-CMs) is recorded as “increases”. Moreover, in assay [2], the contractility entry is “enhances”. Moreover, in assay [3], the “maximum oxygen consumption rate (OCR)” value is listed as “increases” and the respiratory reserve capacity entry is “increases”.

Take `COc1ccc(C2=N[C@@H](c3ccc(Cl)cc3)[C@@H](c3ccc(Cl)cc3)N2C(=O)N2CCNC(=O)C2)c(OC(C)C)c1` [Nutlin-3a, nutlin-3a]: in assay [5] (flow cytometry), the “mean fluorescence intensity (MFI) of Kir2.1” value was “increases”, the “mean fluorescence intensity (MFI) of TNNT2” value is given as “increases”, the “mean fluorescence intensity (MFI) of p53” value is “increases” and the “percentage of Kir2.1 in TNNT2+ iPSC-CMs” value is “increases”. In assay [5] (flow cytometry), the “percentage of TNNT2 in iPSC-CMs (% TNNT2+)” value is reported as “increases” and the “percentage of p53 in TNNT2+ iPSC-CMs” value is “increases”. Also, in assay [5] (iPSC-CMs), the “expression of Kir2.1” value was “increased”, the “expression of TNNT2” value is given as “increased” and the “expression of p53” value is given as “increased”. Also, in assay [6], the mean beat amplitude entry is “increases” and the mean spike amplitude entry is “increases”.

For `O=c1c(O)c(-c2ccc(O)c(O)c2)oc2cc(O)cc(O)c12` [Quercetin, quercetin], in assay [5] (flow cytometry), the “mean fluorescence intensity (MFI) of Kir2.1” value is “increases”, the “mean fluorescence intensity (MFI) of p53” value is “increases”, the “percentage of Kir2.1 in TNNT2+ iPSC-CMs” value was “increases” and the “percentage of p53 in TNNT2+ iPSC-CMs” value is “increases”. Besides, in assay [5] (iPSC-CMs), the “expression of Kir2.1” value was “increased” and the “expression of p53” value is “increased”.

`N#Cc1c(-c2cccs2)cc(-c2cccs2)nc1SCC(=O)c1cccs1` [RCM1]: the “purity of iPSC-CMs” value in assay [5] is reported as “increased”. Moreover, in assay [5] (flow cytometry), the “mean fluorescence intensity (MFI) of Kir2.1” value is “increases”, the “percentage of Kir2.1 in TNNT2+ iPSC-CMs” value is “increases” and the “percentage of TNNT2 in iPSC-CMs (% TNNT2+)” value is on record as “increases”. The “expression of Kir2.1” value in assay [5] (iPSC-CMs) is “increased”. Besides, in assay [1], the “protein expression of TNNI3” value is given as “increases” and the “protein expression of TNNT2” value was “increases”. Besides, the “mean beat amplitude by multielectrode array analysis” value in assay [2] (3D suspension culture) is reported as “increases”. Also, in assay [3], the “maximum oxygen consumption rate (OCR)” value was “increases” and the respiratory reserve capacity entry is “increases”.

As for `CCC(=O)N1CCN(c2ccc(-n3c(=O)ccc4cnc5ccc(-c6cnc7ccccc7c6)cc5c43)cc2C(F)(F)F)CC1` [Torin1], the resting membrane potential entry in assay [7] is recorded as “decreased”.
